The results in this text go back to article PMC7756341, “Liposomal FRET Assay Identifies Potent Drug‐Like Inhibitors of the Ceramide Transport Protein (CERT)” (Chemistry (Weinheim an Der Bergstrasse, Germany), 2020).

Several values for one entry are separate records, joined by “and”; a condition that tells them apart may be missing. Equal values may be shown once. Read-outs that look alike come from different tables or passages of the source.

The target of this assay is T1, START domain of human CERT (Homo sapiens, UniProt Q9Y5P4).
T1 construct: The START domain of hCERT was expressed has a His6-SUMO fusion protein [2]; His6-SUMO (N, cleaved yes); made in house; host or cells: E. coli BL21(DE3), pQE-based plasmid
T1 sequence (Q9Y5P4 347-598 isoform Q9Y5P4-2 limits assumed): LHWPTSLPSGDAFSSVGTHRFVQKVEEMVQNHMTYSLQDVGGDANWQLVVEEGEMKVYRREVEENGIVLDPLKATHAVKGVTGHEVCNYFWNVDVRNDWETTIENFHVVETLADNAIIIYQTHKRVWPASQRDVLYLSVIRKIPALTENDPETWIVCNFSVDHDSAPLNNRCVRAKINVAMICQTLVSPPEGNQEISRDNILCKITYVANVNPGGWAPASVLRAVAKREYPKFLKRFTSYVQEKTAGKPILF
Kind of assay: Microscale thermophoresis (MST) binding assay. To be noted: for Kd: fluorescently labeled START domain 50 nM. On the procedure: 1.2 Expression and purification of the START domain of human CERT
The START domain of hCERT was expressed has a His6-SUMO fusion protein [2]. The pQE-based plasmid harboring the genetic information of His6-SUMO-START was transformed into E. coli BL21(DE3) by following the standard heat shock method. Colonies were grown on carbenicillin ([…]) and 1% glucose supplemented Luria–Bertani (LB) agar plates. A single colony was used to inoculate 20 ml of pre-culture 1 % of which was then used to inoculate 500 ml of LB medium ([…] carbenicillin, 10 mM glucose, 37 °C, 160 rpm). Upon reaching OD600 = 0.8, the culture was induced with 500 μM IPTG (isopropyl-β-d-thiogalactoside) and cells were incubated for 16 h with continuous shaking at 160 rpm. The cells were harvested by centrifugation […]
For purification of the protein, the cell pellet was re-suspended in lysis buffer (25 mM Tris/HCl, pH 7.4, 270 mM Sucrose, 1% Triton X-100, 2.5 mM dithiothreitol (DTT), Protease/Phosphatase inhibitor) on ice. Cells were disrupted using an EmulsiFlex-C3 instrument (Avestin Inc.; CANADA). The lysate was cleared by centrifugation, and the supernatant was loaded onto a Ni– NTA column (Qiagen). The protein was washed with loading buffer pH 7.4 (50 mM Na2HPO4, 50 mM NaH2PO4, 150 mM NaCl, 2,5 mM DTT) containing 20 mM imidazole and eluted with elution […]
mM imidazole. Fractions containing the protein of interest according to SDS-PAGE were pooled and digested with Ubiquitin-like-protein specific protease 1 (ULP1). The by-products (His6-SUMO and ULP1) were removed in a second IMAC step, and the target protein was subjected to a final purification by gel filtration on a superdex 200 16/600 prep grade column equilibrated with loading buffer pH 7.4 (50 mM Na2HPO4, 50 mM NaH2PO4, 150 mM NaCl, 2.5 mM DTT). The monomeric form of the START domain of hCERT was collected. The final concentration of the protein was determined via UV-Visible spectrophotometry (Varian Cary 50) at 280 nm using a calculated extinction coefficient of 50420 (M-1 cm-1).
4. Microscale Thermophoresis (MST) assays
4.1 Labeling of the START domain with a fluorophore dye
In order to perform MST assays, the START domain was coupled with a commercially available fluorophore dye (NT647 (NanoTemper Technologies, Munich, Germany)) following standard procedures provided in the manufacturer's protocol. Briefly, 10 µM of the START domain was labeled with 30 µM of the fluorophore in NHS-LB buffer kept in the dark for 30min. Any excess of the dye was removed via size exclusion chromatography on a Sephadex G25 column (GE Healthcare). The concentration of the labeled protein was determined by UV-VIS spectrophotometry at 280 nm (Varian Cary 50).
4.2 Preparation of the dilution series and MST assay
Dilution series of small-molecule ligands were prepared from stock solutions in DMSO. In case of 6B11 and 17C9, ligands were then diluted into MST buffer (50 mM Na-phosphate, 150 mM NaCl, 2.5 mM DTT, 0.05% Tween-20) to a concentration 2-fold higher than the maximum concentration used in the assay. The concentration of DMSO was kept constant in all dilutions. 16 dilutions of the ligands were prepared in micro reaction tubes by successive 1:1 dilutions with […]
solubility problems. To this end, first, a dilution series in pure DMSO was generated. The individual dilutions were then further diluted 20-fold with MST buffer to a ligand concentration 2-fold higher than its final concentration. As a final step, 10 μL of the fluorescently labeled START domain was added to all reaction tubes containing 10 μL of ligand solution. The final concentration of START domain was 50 nM. After mixing, 2-3 μL of the reaction mixture were filled into standard capillaries (Nanotemper Technologies).
MST measurements were performed with a Monolith NT.115 instrument (Nanotemper Technologies). All ligands were measured as triplicates. 40% MST excitation power was set and, depending on the labeled protein concentration used in the assay, between 5% to 20% of LED […]
(In general: Microscale thermophoresis detects binding through changes in fluorescence in a small temperature gradient.)

For `CCCC(=O)OCOC(=O)C1=C(C)NC(C)=C(C(=O)OC)C1c1cccc(Cl)c1Cl` (stereo not drawn) [6B11, Clevidipine butyrate], the Kd (read-out: KD) is ~5 µM and 2.32 µM.

As for `O=C(NC1CCN(CCCCC2(C(=O)NCC(F)(F)F)c3ccccc3-c3ccccc32)CC1)c1ccccc1-c1ccc(C(F)(F)F)cc1` [8E8, lomitapide], the Kd (read-out: KD) is ~5 µM and 6.77 µM.

Regarding `CC1=NN(c2ccc(C)c(C)c2)C(=O)/C1=N\Nc1cccc(-c2cccc(C(=O)O)c2)c1O` [17C9, Eltrombopag], under “labeled START domain”, the “binding confirmed by MST” value is listed as “confirmed binding for all compounds except 17C9”.

Consider `Cc1cc(C2=NOC(c3cc(Cl)cc(Cl)c3)(C(F)(F)F)C2)ccc1C(=O)NCC(=O)NCC(F)(F)F` (stereo not drawn) [20D5, Fluralaner], for which the dissociation constant Kd (KD) was ~150 µM and 153 µM.

As to `CCCCCCCCCCCC(=O)NC(CO)CC(O)c1ccccc1` (stereo not drawn) [HPA-12, N-(3Hydroxy-1-hydroxymethyl-3-phenylpropyl)-dodecamide], the Kd was roughly 0.04 µM (listed as HPA‐12, read-out: KD) and 0.0415 µM (read-out: KD).

The Kd is a measure of binding affinity in units of concentration.
